In patent publication US9730940B2, “Purine inhibitors of human phosphatidylinositol 3-kinase delta” (priority 2012, dated 2017):

The compounds below were run against PI3K-alpha (Homo sapiens (Human), UniProt P42336) (assay: HTRF PI3K biochemical assay, alpha isoform). Conditions: ratio PI3K-alpha IC50 value/PI3K-delta IC50 value.
PI3K-alpha, sequence (P42336 whole entry, looked up, canonical isoform): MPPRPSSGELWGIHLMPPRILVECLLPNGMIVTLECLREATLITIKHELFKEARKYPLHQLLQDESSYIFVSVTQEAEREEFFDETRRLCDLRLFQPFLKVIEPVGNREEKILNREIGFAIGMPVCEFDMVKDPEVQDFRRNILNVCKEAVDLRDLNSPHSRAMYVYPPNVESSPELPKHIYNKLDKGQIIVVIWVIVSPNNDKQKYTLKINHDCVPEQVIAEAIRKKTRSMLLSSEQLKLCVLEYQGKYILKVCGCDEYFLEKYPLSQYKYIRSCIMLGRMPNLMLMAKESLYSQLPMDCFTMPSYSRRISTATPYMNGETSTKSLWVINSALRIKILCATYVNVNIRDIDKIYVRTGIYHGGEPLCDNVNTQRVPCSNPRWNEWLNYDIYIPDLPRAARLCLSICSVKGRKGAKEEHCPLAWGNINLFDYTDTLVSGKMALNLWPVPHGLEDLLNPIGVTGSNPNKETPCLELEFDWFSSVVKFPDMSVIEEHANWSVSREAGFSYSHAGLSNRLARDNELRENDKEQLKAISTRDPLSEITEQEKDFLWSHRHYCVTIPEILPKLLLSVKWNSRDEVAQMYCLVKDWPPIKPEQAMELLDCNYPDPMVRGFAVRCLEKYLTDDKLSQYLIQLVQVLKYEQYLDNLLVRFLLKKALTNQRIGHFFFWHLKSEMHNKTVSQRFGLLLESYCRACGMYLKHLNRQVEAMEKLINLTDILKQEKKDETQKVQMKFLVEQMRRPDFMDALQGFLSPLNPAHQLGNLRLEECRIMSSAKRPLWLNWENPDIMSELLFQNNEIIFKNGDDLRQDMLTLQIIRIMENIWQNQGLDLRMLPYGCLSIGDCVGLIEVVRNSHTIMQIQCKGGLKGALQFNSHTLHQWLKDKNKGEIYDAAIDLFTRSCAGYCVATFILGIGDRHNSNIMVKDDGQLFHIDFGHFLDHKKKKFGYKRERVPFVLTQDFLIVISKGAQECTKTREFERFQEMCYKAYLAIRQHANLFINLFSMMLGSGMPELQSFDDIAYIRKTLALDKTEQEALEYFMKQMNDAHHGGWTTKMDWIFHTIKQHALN
PI3K-alpha, sequence (P27986 whole entry partner, looked up, canonical isoform): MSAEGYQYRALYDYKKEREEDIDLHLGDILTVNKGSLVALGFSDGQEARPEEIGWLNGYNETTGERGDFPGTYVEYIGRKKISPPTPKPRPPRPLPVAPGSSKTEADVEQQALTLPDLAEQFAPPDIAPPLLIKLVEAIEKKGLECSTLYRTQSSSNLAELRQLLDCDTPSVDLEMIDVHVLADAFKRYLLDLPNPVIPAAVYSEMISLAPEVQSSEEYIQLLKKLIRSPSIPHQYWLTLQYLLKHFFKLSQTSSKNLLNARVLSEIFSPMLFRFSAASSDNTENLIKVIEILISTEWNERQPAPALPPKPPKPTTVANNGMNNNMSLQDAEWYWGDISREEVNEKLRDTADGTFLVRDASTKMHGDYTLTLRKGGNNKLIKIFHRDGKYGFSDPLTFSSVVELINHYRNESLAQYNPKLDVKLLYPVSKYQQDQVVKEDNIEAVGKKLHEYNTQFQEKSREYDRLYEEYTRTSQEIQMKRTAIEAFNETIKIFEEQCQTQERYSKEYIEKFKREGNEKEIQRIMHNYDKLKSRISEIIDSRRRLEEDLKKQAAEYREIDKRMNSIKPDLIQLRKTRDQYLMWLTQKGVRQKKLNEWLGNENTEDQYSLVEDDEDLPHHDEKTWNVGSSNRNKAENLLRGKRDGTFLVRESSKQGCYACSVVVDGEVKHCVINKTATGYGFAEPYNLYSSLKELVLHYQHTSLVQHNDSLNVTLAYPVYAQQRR

| Structure (SMILES) | Relative Selectivity versus PI3Kalpha |
| --- | --- |
| CCn1c(-c2cnc(C)nc2)nc2c(O[C@H]3CCN(C(=O)C4C(C)C4C)C3)ncnc21 (some centres unmarked) [Compound 2-128] | >10 |
| CCn1c(-c2cnc(C)nc2)nc2c(O[C@H]3CCN(C(=O)C4CC(C)C4)C3)ncnc21 (stereo partly drawn) [Compound 2-129, 9-ethyl-6-({(3S)-1-[(3-methylcyclobutyl)carbonyl]pyrrolidin-3-yl}oxy)-8-(2-methylpyrimidin-5-yl)-9H-purine] | >10 |
| CCn1c(-c2cnc(C)nc2)nc2c(O[C@H]3CCN(C(=O)c4cocn4)C3)ncnc21 [Compound 2-136, 9-ethyl-8-(2-methylpyrimidin-5-yl)-6-{[(3S)-1-(1,3-oxazol-4-ylcarbonyl)pyrrolidin-3-yl]oxy}-9H-purine] | >10 |
| CCn1c(-c2cnc(C)nc2)nc2c(OC3(C)CCN(C(=O)C4CC4)C3)ncnc21 (centres unmarked) [Compound 2-141, 6-{[1-(cyclopropylcarbonyl)-3-methylpyrrolidin-3-yl]oxy}-9-ethyl-8-(2-methylpyrimidin-5-yl)-9H-purine] | >10 |
| CCn1c(-c2ccc(OC(F)(F)F)cc2)nc2c(O[C@H]3CCN(C(=O)C4CC4)C3)ncnc21 [Compound 2-142, 6-{[(3S)-1-(cyclopropylcarbonyl)pyrrolidin-3-yl]oxy}-9-ethyl-8-[4-(trifluoromethoxy)phenyl]-9H-purine] | >10 |
| CCn1c(-c2ccc(OC)nc2)nc2c(O[C@H]3CCN(C(=O)C4CC4)C3)ncnc21 [Compound 2-143, 6-{[(3S)-1-(cyclopropylcarbonyl)pyrrolidin-3-yl]oxy}-9-ethyl-8-(6-methoxypyridin-3-yl)-9H-purine] | >10 |
| CCn1c(-c2ccnc(OC)c2)nc2c(O[C@H]3CCN(C(=O)C4CC4)C3)ncnc21 [Compound 2-144, 6-{[(3S)-1-(cyclopropylcarbonyl)pyrrolidin-3-yl]oxy}-9-ethyl-8-(2-methoxypyridin-4-yl)-9H-purine] | >10 |
| CCn1c(-c2ccc(C(F)(F)F)nc2)nc2c(O[C@H]3CCN(C(=O)C4CC4)C3)ncnc21 [Compound 2-145, 6-{[(3S)-1-(cyclopropylcarbonyl)pyrrolidin-3-yl]oxy}-9-ethyl-8-[6-(trifluoromethyl)pyridin-3-yl]-9H-purine] | >10 |
| CCn1c(-c2ccc(C(F)(F)F)cc2)nc2c(O[C@H]3CCN(C(=O)C4CC4)C3)ncnc21 [Compound 2-146, 6-{[(3S)-1-(cyclopropylcarbonyl)pyrrolidin-3-yl]oxy}-9-ethyl-8-[4-(trifluoromethyl)phenyl]-9H-purine] | >10 |
| CCn1c(-c2ccc(OC(F)F)nc2)nc2c(O[C@H]3CCN(C(=O)C4CC4)C3)ncnc21 [Compound 2-147, 6-{[(3S)-1-(cyclopropylcarbonyl)pyrrolidin-3-yl]oxy}-8-[6-(difluoromethoxy)pyridin-3-yl]-9-ethyl-9H-purine] | >10 |
| CCC(=O)N1CC[C@H](Oc2ncnc3c2nc(-c2ccc4cn[nH]c4c2)n3C)C1 [Compound 3-1, (S)-1-(3-((8-(1H-indazol-6-yl)-9-methyl-9H-purin-6-yl)oxy)pyrrolidin-1-yl)propan-1-one] | >10 |
| CCC(=O)N1CC[C@H](Oc2ncnc3c2nc(-c2ccc(C(F)(F)F)nc2)n3C)C1 [Compound 3-2, (S)-1-(3-((9-methyl-8-(6-(trifluoromethyl)pyridin-3-yl)-9H-purin-6-yl)oxy)pyrrolidin-1-yl)propan-1-one] | >10 |
| CCC(=O)N1CC[C@H](Oc2ncnc3c2nc(-c2cnc4[nH]ccc4c2)n3C)C1 [Compound 3-3, (S)-1-(3-((9-methyl-8-(1H-pyrrolo[2,3-b]pyridin-5-yl)-9H-purin-6-yl)oxy)pyrrolidin-1-yl)propan-1-one] | >10 |
| CCC(=O)N1CC[C@H](Oc2ncnc3c2nc(-c2ccc4cc[nH]c4c2)n3C)C1 [Compound 3-4, (S)-1-(3-((8-(1H-indol-6-yl)-9-methyl-9H-purin-6-yl)oxy)pyrrolidin-1-yl)propan-1-one] | >10 |
| CCC(=O)N1CC[C@H](Oc2ncnc3c2nc(-c2ccc4[nH]ncc4c2)n3C)C1 [Compound 3-5, (S)-1-(3-((8-(1H-indazol-5-yl)-9-methyl-9H-purin-6-yl)oxy)pyrrolidin-1-yl)propan-1-one] | >10 |
| CCC(=O)N1CC[C@H](Oc2ncnc3c2nc(-c2cnc(OC)c(C(F)(F)F)c2)n3C)C1 [Compound 3-6, (S)-1-(3-((8-(6-methoxy-5-(trifluoromethyl)pyridin-3-yl)-9-methyl-9H-purin-6-yl)oxy)pyrrolidin-1-yl)propan-1-one] | >10 |
| CCC(=O)N1CC[C@H](Oc2ncnc3c2nc(-c2ccc4[nH]ccc4c2)n3C)C1 [Compound 3-7, (S)-1-(3-((8-(1H-indol-5-yl)-9-methyl-9H-purin-6-yl)oxy)pyrrolidin-1-yl)propan-1-one] | >10 |
| CCC(=O)N1CC[C@H](Oc2ncnc3c2nc(-c2ccc(C)nc2)n3C)C1 [Compound 3-8, (S)-1-(3-((9-methyl-8-(6-methylpyridin-3-yl)-9H-purin-6-yl)oxy)pyrrolidin-1-yl)propan-1-one] | >10 |

| Structure (SMILES) | Relative Selectivity versus PI3Kalpha |
| --- | --- |
| CCC(=O)N1CC[C@H](Oc2ncnc3c2nc(-c2cc(O)cc(F)c2)n3C)C1 [Compound 3-9, 3-fluoro-5-(9-methyl-6-{[(3S)-1-propanoylpyrrolidin-3-yl]oxy}-9H-purin-8-yl)phenol] | >10 |
| CCC(=O)N1CC[C@H](Oc2ncnc3c2nc(-c2cnc4[nH]nc(C)c4c2)n3C)C1 [Compound 3-10, 9-methyl-8-(3-methyl-1H-pyrazolo[3,4-b]pyridin-5-yl)-6-{[(3S)-1-propanoylpyrrolidin-3-yl]oxy}-9H-purine] | >10 |
| CCC(=O)N1CC[C@H](Oc2ncnc3c2nc(-c2cnn(-c4ccccc4)c2)n3C)C1 [Compound 3-11, 9-methyl-8-(1-phenyl-1H-pyrazol-4-yl)-6-{[(3S)-1-propanoylpyrrolidin-3-yl]oxy}-9H-purine] | >10 |
| CCC(=O)N1CC[C@H](Oc2ncnc3c2nc(-c2cnn(-c4ccccc4)c2C)n3C)C1 [Compound 3-12, 9-methyl-8-(5-methyl-1-phenyl-1H-pyrazol-4-yl)-6-{[(3S)-1-propanoylpyrrolidin-3-yl]oxy}-9H-purine] | >10 |
| CCC(=O)N1CC[C@H](Oc2ncnc3[nH]c(-c4cnn(CC)c4C)nc23)C1 [Compound 3-13, 8-(1-ethyl-5-methyl-1H-pyrazol-4-yl)-6-{[(3S)-1-propanoylpyrrolidin-3-yl]oxy}-9H-purine] | >10 |
| CCC(=O)N1CC[C@H](Oc2ncnc3c2nc(-c2cc(F)cc(NS(C)(=O)=O)c2)n3C)C1 [Compound 3-14, N-[3-fluoro-5-(9-methyl-6-{[(3S)-1-propanoylpyrrolidin-3-yl]oxy}-9H-purin-8-yl)phenyl]methanesulfonamide] | >10 |
| CCC(=O)N1CC[C@H](Oc2ncnc3c2nc(-c2cncc(N)c2)n3C)C1 [Compound 3-15, 5-(9-methyl-5-{[(3S)-1-propanoylpyrrolidin-3-yl]oxy}-9H-purin-8-yl)pyridin-3-amine] | >10 |
| CCC(=O)N1CC[C@H](Oc2ncnc3c2nc(-c2cnn(C(C)(C)C)c2)n3C)C1 [Compound 3-16, 8-(1-tert-butyl-1H-pyrazol-4-yl)-9-methyl-6-{[(3S)-1-propanoylpyrrolidin-3-yl]oxy}-9H-purine] | >10 |
| CCC(=O)N1CC[C@H](Oc2ncnc3c2nc(-c2ccc(Cl)nc2)n3C)C1 [Compound 3-17, 8-(6-chloropyridin-3-yl)-9-methyl-6-{[(3S)-1-propanoylpyrrolidin-3-yl]oxy}-9H-purine] | >10 |
| CCCn1c(-c2cnn(CC)c2C)nc2c(O[C@H]3CCN(C(=O)CC)C3)ncnc21 [Compound 3-18, 8-(1-ethyl-5-methyl-1H-pyrazol-4-yl)-6-{[(3S)-1-propanoylpyrrolidin-3-yl]oxy}-9-propyl-9H-purine] | >10 |
| CCCn1c(-c2cnc(C)nc2)nc2c(O[C@H]3CCN(C(=O)CC)C3)ncnc21 [Compound 3-19, 8-(2-methylpyrimidin-5-yl)-6-{[(3S)-1-propanoylpyrrolidin-3-yl]oxy}-9-propyl-9H-purine] | >10 |
| CCC(=O)N1CC[C@H](Oc2ncnc3c2nc(-c2cnc(C)nc2)n3C)C1 [Compound 3-20, 9-methyl-8-(2-methylpyrimidin-5-yl)-6-{[(3S)-1-propanoylpyrrolidin-3-yl]oxy}-9H-purine] | >10 |
| CCC(=O)N1CC[C@H](Oc2ncnc3c2nc(-c2cnn(CC)c2C)n3CC(F)F)C1 [Compound 3-21, 9-(2,2-difluoroethyl)-8-(1-ethyl-5-methyl-1H-pyrazol-4-yl)-6-{[(3S)-1-propanoylpyrrolidin-3-yl]oxy}-9H-purine] | >10 |
| CCC(=O)N1CC[C@H](Oc2ncnc3c2nc(-c2cnn4c2CCC4)n3C)C1 [Compound 3-22, 8-(5,6-dihydro-4H-pyrrolo[1,2-b]pyrazol-3-yl)-9-methyl-6-{[(3S)-1-propanoylpyrrolidin-3-yl]oxy}-9H-purine] | >10 |
| CCn1c(-c2cnn(-c3ccccc3)c2C)nc2c(O[C@H]3CCN(C(=O)C4CC4)C3)ncnc21 [Compound 3-23, 6-{[(3S)-1-(cyclopropylcarbonyl)pyrrolidin-3-yl]oxy}-9-ethyl-8-(5-methyl-1-phenyl-1H-pyrazol-4-yl)-9H-purine] | >10 |
| CCn1c(-c2ccc(OC)c(F)c2)nc2c(O[C@H]3CCN(C(=O)C4CC4)C3)ncnc21 [Compound 3-24, 6-{[(3S)-1-(cyclopropylcarbonyl)pyrrolidin-3-yl]oxy}-9-ethyl-8-(3-fluoro-4-methoxyphenyl)-9H-purine] | >10 |
| CCn1c(-c2cnc3[nH]ccc3c2)nc2c(O[C@H]3CCN(C(=O)C4CC4)C3)ncnc21 [Compound 3-25, 6-{[(3S)-1-(cyclopropylcarbonyl)pyrrolidin-3-yl]oxy}-9-ethyl-8-(1H-pyrrolo[2,3-b]pyridin-5-yl)-9H-purine] | >10 |
